The results in this text go back to patent publication US20220170081A1, “METHOD FOR DETECTING TARGET NUCLEIC ACID AND KIT” (CANON KABUSHIKI KAISHA, priority 2020, published 2022).

Each structure is given as a SMILES string.

Data set [1] in a line: pH of binding buffer when amino compounds were added. Type of data set: physicochemical. As to conditions: FIG. 11. On the procedure:
Change in the pH when the concentration of each of spermidine·3HCl, spermine, and 1,3-diaminopropane added to binding buffer was changed was evaluated. Binding buffer was used for a reaction buffer.

The subject of data set [2] is EnGen Lba Cas12a (Cpf1). Briefly: Experiment of cleavage activity of Cas12a (trans-cleavage of fluorescent reporter molecule). Type of data set: biochemical. The conditions noted are these: for rising of fluorescence compared with no addition: addition concentration 12 mM; for addition concentration at which an effect of facilitating the reaction was observed: concentration changed between 0 to 12 mM, FIGS. 4A to 4E. As for the experimental part: (§1) Thereafter, in a 96-well plate (137101, Thermo Fisher Scientific), binding buffer, various additives, a reporter molecule, and water were added, the total volume was adjusted to 80 μL, and the fluorescence intensity was measured every 2 min at 37° C. for 1 to 2 hours by using a fluorescent plate reader Synergy MX (BioTec). Regarding the measurement wavelength, for HiLyte488, an excitation wavelength of 485±20 nm and a fluorescence wavelength of 528±20 nm were used. For the IDT reporter, an excitation wavelength of 535±20 nm and a fluorescence wavelength of 595±20 nm were used. For a reporter marked with Cy5 or Alexa Fluor 647, an excitation wavelength of 620±20 nm and a fluorescence wavelength of 680±20 nm were used.
FIGS. 1A and 1B illustrate a change over time in the ratio of the fluorescence intensity of the IDT reporter to the fluorescence intensity of an internal standard dye Hilyte488.

The target of data set [3] is Alt-R A.s. Cas12a (Cpf1) Nuclease V3 (Acidaminococcus sp., UniProt U2UMQ6). The conditions noted are these: spermine 2.0 mM; NEBuffer 2.1; various concentrations of Tween 20 and BSA; FIG. 2A. As for the experimental part:
as §1, with “A ternary complex was formed by mixing 400-nM Cas12a, 500-nM crRNA, and a predetermined concentration of target DNA at a volume ratio of 1:1:2 and performing incubation at 37° C. for 30 to 60 minutes. Thereafter,” for “Thereafter,”

The target of data set [4] is Alt-R A.s. Cas12a (Cpf1) Ultra (Acidaminococcus sp., UniProt U2UMQ6, F870L/M537R). The conditions noted are these: spermine 2.0 mM; NEBuffer 2.1; various concentrations of Tween 20 and BSA; FIG. 2B. As for the experimental part: as §1, with “A ternary complex was formed by mixing 400-nM Cas12a, 500-nM crRNA, and a predetermined concentration of target DNA at a volume ratio of 1:1:2 and performing incubation at 37° C. for 30 to 60 minutes. Thereafter,” for “Thereafter,”

Take `NCCCN` [1,3-diaminopropane]: the “change in the pH of binding buffer with addition concentration” value (“change in the pH of binding buffer” for short) in data set [1] is given as “the pH increased with increasing the addition concentration”.

As for `NCCCCNCCCN` [spermidine], in data set [2], the “rising of fluorescence compared with no addition” value was “the rising of fluorescence equivalent to that in the instance of no addition” and the “addition concentration at which an effect of facilitating the reaction was observed” value is recorded as no less than 0.2 mM.

Regarding `Cl.Cl.Cl.NCCCCNCCCN` [spermidine·3HCl, spermidine trihydrochloride], the “change in the pH of binding buffer” value in data set [1] is reported as “the pH hardly changed”.

For `NCCCNCCCCNCCCN` [spermine], the “effect of amino compound on cleavage reaction of Cas12a (ratio of IDT reporter fluorescence to Hilyte488)” value in data set [2] (2.0 mM, binding buffer and NEBuffer 2.1, 0.5% Tween 20 + 0.3% BSA or 1.5% Tween + 0.6% BSA, 1 nM target DNA) is on record as “facilitated the reaction”. Moreover, the “effect on cleavage reaction with respect to ten types of reporter molecules” value in data set [2] (2.0 mM, binding buffer, all reporter molecules of Table 1, FIG. 3B) is “the effect of facilitating the reaction by addition of the amino compound was ascertained”. The “effect of facilitating the reaction” value in data set [2] (7.8 mM (FIG. 5A) or 1.4 mM (FIGS. 5B and 5C), binding buffer, IDT reporter) is listed as “a high effect of facilitating the reaction”. The “rising of fluorescence compared with no addition” value in data set [2] is listed as “the rising of fluorescence was reduced compared with the instance of no addition”. The “addition concentration at which an effect of facilitating the reaction was observed” value in data set [2] is no more than 7.8 mM. In addition, the “cleavage activity against the reporter molecule depending on timing of addition of amino compound” value in data set [2] (final 2.0 mM, conditions 1 to 6, binding buffer, FIGS. 9A to 9C) is “higher under condition 2, condition 4, and condition 6”. Further, the “effect of amino compound on cleavage reaction” value in data set [2] (spermine 2.0 mM, NEBuffer 2.1, various concentrations of Tween 20 and BSA, FIG. 2C) is listed as “the reaction was facilitated”; in data set [3] it was “the reaction was facilitated”; in data set [4], “the reaction was facilitated”. Further, in data set [1], the “change in the pH of binding buffer” value is recorded as “the pH increased with increasing the addition concentration”.
